Results: patent publication US9051310B2, “Nicotinamide derivative or salt thereof” (FUJIFILM Corporation, priority 2011, dated 2015)

Key:
[1] = molecular target: T1, glutathione S-transferase (GST)-linked full-length human Syk protein (Homo sapiens, UniProt P43405); assay: Syk enzyme assay; type: biochemical; conditions: 0.83 nM Syk, time-resolved fluorescence; read-out: IC50 of Syk-inhibitory activity
T1 construct: glutathione S-transferase (GST)-linked full-length human Syk protein; purchased Carna Biosciences; host or cells: Baculovirus expression system
Procedure, shortened: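 Phosphotyrosine on a biotin-peptide substrate (0.5 μM) was read by time-resolved fluorescence at 615 and 665 nm with Eu-anti-pTyr antibody and APC-streptavidin after 1 h EDTA stop.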

[2] = tested on: THP-1 cells (TNFα secretion on human IgG-coated plate); assay: TNFα generation assay; type: cell-based; conditions: IFN-γ differentiated THP-1 cells, 7 hours, AlphaLISA, read-out: IC50 of TNFα generation inhibitory activity
Procedure: THP-1 cells (2×10^5 cells/ml), which were human monocytoid cells, were cultured in the presence of 10 ng/ml IFN-γ (Roche) for 2 days, and they were induced to differentiate into macrophage-like cells. The differentiation-induced THP-1 cells were recovered, and the cells (1×10^6 cell/ml) were then allowed to react with a predetermined concentration of test compound at room temperature for 30 minutes. On the other hand, 100 μl of human IgG (10 μg/ml, SIGMA-ALDRICH) diluted with PBS was added to a 96-well plate, and it was then incubated at room temperature overnight. Thereafter, the resultant was washed with PBS twice to produce a human IgG-coated plate. A cell fluid that contained a compound was plated on the obtained human IgG-coated plate (5×10^4 cells/well), and it was then cultured for 7 hours. Thereafter, the cultured solution was recovered, and the amount of TNFα secreted into the culture solution was then measured by the AlphaLISA method (PerkinElmer).

| Structure (SMILES) | IC50 [1] [µM] | IC50 [2] [µM] |
| --- | --- | --- |
| C[C@H](N)[C@H](Nc1nc(Nc2cncc(-n3cccn3)c2)c(C(N)=O)cc1F)C1CCC1 [Example 2-24, 2-((5-(1H-pyrazol-1-yl)pyridin-3-yl)amino)-6-(((1R,2S)-2-amino-1-cyclobutylpropyl)amino)-5-fluoronicotinamide] | < 0.01 | 0.13 to 0.2 |
| Cc1cccc(Nc2nc(N[C@H](C3CCC3)[C@H](C)N)c(F)cc2C(N)=O)c1 [Example 2-25, 6-(((1R,2S)-2-amino-1-cyclobutylpropyl)amino)-5-fluoro-2-(m-tolylamino)nicotinamide] | < 0.01 | 0.13 to 0.2 |
| Cc1cc(C)cc(Nc2nc(N[C@H](C3CCC3)[C@H](C)N)c(F)cc2C(N)=O)c1 [Example 2-26, 6-(((1R,2S)-2-amino-1-cyclobutylpropyl)amino)-2-((3,5-dimethylphenyl)amino)-5-fluoronicotinamide] | < 0.01 | 0.13 to 0.2 |
| COc1cccc(Nc2nc(N[C@H](C3CCC3)[C@H](C)N)c(F)cc2C(N)=O)c1 [Example 2-27, 6-(((1R,2S)-2-amino-1-cyclobutylpropyl)amino)-5-fluoro-2-((3-methoxyphenyl)amino)nicotinamide] | < 0.01 | 0.065 to 0.13 |
| COc1ccc(Nc2nc(N[C@H](C3CCC3)[C@H](C)N)c(F)cc2C(N)=O)cc1OC [Example 2-29] | < 0.01 | 0.065 to 0.13 |
| Cc1ncc(Nc2nc(N[C@H](c3ccc(F)cc3)[C@H](C)N)c(F)cc2C(N)=O)cc1-n1nccn1 [Example 2-32, 6-(((1R,2S)-2-amino-1-(4-fluorophenyl)propyl)amino)-5-fluoro-2-((6-methyl-5-(2H-1,2,3-triazol-2-yl)pyridin-3-yl)ammo)nicotinamide] | < 0.01 | 0.13 to 0.2 |
| CC[C@H](N)[C@@H](C)Nc1nc(Nc2cnc(C)c(-n3nccn3)c2)c(C(N)=O)cc1F [Example 2-33, 6-(((2R,3S)-3-aminopentan-2-yl)amino)-5-fluoro-2-((6-methyl-5-(2H-1,2,3-triazol-2-yl)pyridin-3-yl)amino)nicotinamide] | 0.01 to 0.05 | 0.13 to 0.2 |
| CC(C)C[C@@H](Nc1nc(Nc2ccc3cnn(C)c3c2)c(C(N)=O)cc1F)[C@H](C)N [Example 2-37, 6-(((2S,3R)-2-amino-5-methylhexan-3-yl)amino)-5-fluoro-2-((1-methyl-1H-indazol-6-yl)amino)nicotinamide] | < 0.01 | 0.065 to 0.13 |
| CCCC[C@@H](Nc1nc(Nc2ccc3cnn(C)c3c2)c(C(N)=O)cc1F)[C@H](C)N [Example 2-38, 6-(((2S,3R)-2-aminoheptan-3-yl)amino)-5-fluoro-2-((1-methyl-1H-indazol-6-yl)amino)nicotinamide] | < 0.01 | 0.065 to 0.13 |
| CC[C@H](N)[C@@H](C)Nc1nc(Nc2ccc3cnn(C)c3c2)c(C(N)=O)cc1F [Example 2-39, 6-(((2R,3S)-3-aminopentan-2-yl)amino)-5-fluoro-2-((1-methyl-1H-indazol-6-yl)amino)nicotinamide] | < 0.01 | < 0.065 |
| CC[C@H](N)[C@@H](C)Nc1nc(Nc2cncc(C3CC3)c2)c(C(N)=O)cc1F [Example 2-41, 6-(((2R,3S)-3-aminopentan-2-yl)amino)-2-((5-cyclopropylpyridin-3-yl)amino)-5-fluoronicotinamide] | < 0.01 | 0.065 to 0.13 |
| CC[C@H](N)[C@@H](C)Nc1nc(Nc2ccnc(OCCOC)c2)c(C(N)=O)cc1F [Example 2-42, 6(((2R,3S)-3-aminopentan-2-yl)amino)-5-2-((2-(2-methoxyethoxy)pyridin-4-yl)amino)nicotinamide] | 0.01 to 0.05 | 0.065 to 0.13 |
| CC[C@H](N)[C@@H](CC)Nc1nc(Nc2ccnc(OCCOC)c2)c(C(N)=O)cc1F [Example 2-43, 6-(((3R,4S)-4-aminohexan-3-yl)amino)-5-fluoro-2-((2-(2-methoxyethoxy)pyridin-4-yl)amino)nicotinamide] | < 0.01 | 0.13 to 0.2 |
